Experimental data as given in patent publication US20040087633A1, “Methylidene oxazolidinone compound and preparation method thereof” (Korea Institute of Science and Technology, priority 2002, published 2004).
Values after ≈ are worked out from the molar mass of the structure shown.

How the values were obtained:
Assay in all cases: Anti-microbial activity test in vitro (agar dilution MIC)
[1] = test system: VRE C6488; type: cell-based, Enterococcus faecium; conditions: VRE C6488; Agar Dilution method, Mueller Hinton Agar, 18 hours at 37° C.
Outline: (§1)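 Visual endpoint: minimum inhibitory concentration (μg/ml) by agar dilution, Mueller Hinton medium, twofold steps, 18 h at 37 °C.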

[2] = test system: VRE C6487; type: cell-based, Enterococcus faecium; conditions: VRE C6487; Agar Dilution method, Mueller Hinton Agar, 18 hours at 37° C.
Outline: as §1

[3] = test system: MSSA C2214; type: cell-based, Staphylococcus aureus; conditions: MSSA C2214; Agar Dilution method, Mueller Hinton Agar, 18 hours at 37° C.
Outline: as §1

[4] = test system: MRSA C2207; type: cell-based, Staphylococcus aureus; conditions: MRSA C2207; Agar Dilution method, Mueller Hinton Agar, 18 hours at 37° C.
Outline: as §1

[5] = test system: MSSA C7142; type: cell-based, Staphylococcus aureus; conditions: MSSA C7142; Agar Dilution method, Mueller Hinton Agar, 18 hours at 37° C.
Outline: as §1

[6] = test system: MRSA C5100; type: cell-based, Staphylococcus aureus; conditions: MRSA C5100; Agar Dilution method, Mueller Hinton Agar, 18 hours at 37° C.
Outline: as §1

[7] = test system: CRSA C6043; type: cell-based, Staphylococcus aureus; conditions: CRSA C6043; Agar Dilution method, Mueller Hinton Agar, 18 hours at 37° C.
Outline: as §1

[8] = test system: MRSA C6068; type: cell-based, Staphylococcus aureus; conditions: MRSA C6068; Agar Dilution method, Mueller Hinton Agar, 18 hours at 37° C.
Outline: as §1

[9] = test system: CRSA C1062; type: cell-based, Staphylococcus aureus; conditions: CRSA C1062; Agar Dilution method, Mueller Hinton Agar, 18 hours at 37° C.
Outline: as §1

[10] = test system: E. faecalis C6291; type: cell-based; conditions: E. faecalis C6291; Agar Dilution method, Mueller Hinton Agar, 18 hours at 37° C.
Outline: as §1

[11] = test system: S. epidermidis C2235; type: cell-based; conditions: S. epidermidis C2235; Agar Dilution method, Mueller Hinton Agar, 18 hours at 37° C.
Outline: as §1

[12] = test system: S. pyogenes C6012; type: cell-based; conditions: S. pyogenes C6012; Agar Dilution method, Mueller Hinton Agar, 18 hours at 37° C.
Outline: as §1

[13] = test system: S. aureus ATCC 29213; type: cell-based; conditions: Agar Dilution method, Mueller Hinton Agar, 18 hours at 37° C.
Outline: as §1

[14] = test system: E. faecalis ATCC29212; type: cell-based; conditions: E. faecalis ATCC29212; Agar Dilution method, Mueller Hinton Agar, 18 hours at 37° C.
Outline: as §1

[15] = test system: E. faecium C2252; type: cell-based; conditions: E. faecium C2252; Agar Dilution method, Mueller Hinton Agar, 18 hours at 37° C.
Outline: as §1

[16] = test system: E. faecium C6301; type: cell-based; conditions: E. faecium C6301; Agar Dilution method, Mueller Hinton Agar, 18 hours at 37° C.
Outline: as §1

[17] = test system: S. pyogenes ATCC8668; type: cell-based; conditions: S. pyogenes ATCC8668; Agar Dilution method, Mueller Hinton Agar, 18 hours at 37° C.
Outline: as §1

[18] = test system: E. faecalis C6288; type: cell-based; conditions: E. faecalis C6288; Agar Dilution method, Mueller Hinton Agar, 18 hours at 37° C.
Outline: as §1

[19] = test system: S. epidermidis C2230; type: cell-based; conditions: S. epidermidis C2230; Agar Dilution method, Mueller Hinton Agar, 18 hours at 37° C.
Outline: as §1

[20] = test system: S. pyogenes C6003; type: cell-based; conditions: S. pyogenes C6003; Agar Dilution method, Mueller Hinton Agar, 18 hours at 37° C.
Outline: as §1

[21] = test system: S. epidermidis ATCC12228; type: cell-based; conditions: S. epidermidis ATCC12228; Agar Dilution method, Mueller Hinton Agar, 18 hours at 37° C.
Outline: as §1

## CC(=S)NC[C@H]1CN(c2ccc(N3CCC(=CC#N)CC3)c(F)c2)C(=O)O1 [Compound 26, N-[[(5S)-3-[3-fluoro-4-(4-(cyanomethylidene)piperidinyl)-phenyl]-2-oxo-5-oxazolidinyl]methyl]thioacetamide]
[1]
  Minimum inhibition concentration (MIC): 0.5 µg/mL (≈ 1.29 µM)
[2]
  Minimum inhibition concentration (MIC): 0.5 µg/mL (≈ 1.29 µM)
[3]
  Minimum inhibition concentration (MIC): 2 µg/mL (≈ 5.15 µM)
[4]
  Minimum inhibition concentration (MIC): 2 µg/mL (≈ 5.15 µM)
[5]
  Minimum inhibition concentration (MIC): 2 µg/mL (≈ 5.15 µM)
[6]
  Minimum inhibition concentration (MIC): 1 µg/mL (≈ 2.57 µM)
[7]
  Minimum inhibition concentration (MIC): 2 µg/mL (≈ 5.15 µM)
[8]
  Minimum inhibition concentration (MIC): 2 µg/mL (≈ 5.15 µM)
[9]
  Minimum inhibition concentration (MIC): 2 µg/mL (≈ 5.15 µM)
[10]
  Minimum inhibition concentration (MIC): 1 µg/mL (≈ 2.57 µM)
[11]
  Minimum inhibition concentration (MIC): 0.5 µg/mL (≈ 1.29 µM)
[12]
  Minimum inhibition concentration (MIC): 0.25 µg/mL (≈ 0.644 µM)
[13]
  Minimum inhibition concentration (MIC): 2 µg/mL (≈ 5.15 µM)
[14]
  Minimum inhibition concentration (MIC): 2 µg/mL (≈ 5.15 µM)
[15]
  Minimum inhibition concentration (MIC): 1 µg/mL (≈ 2.57 µM)
[16]
  Minimum inhibition concentration (MIC): 1 µg/mL (≈ 2.57 µM)
[17]
  Minimum inhibition concentration (MIC): 0.5 µg/mL (≈ 1.29 µM)
[18]
  Minimum inhibition concentration (MIC): 1 µg/mL (≈ 2.57 µM)
[19]
  Minimum inhibition concentration (MIC): 1 µg/mL (≈ 2.57 µM)
[20]
  Minimum inhibition concentration (MIC): 0.25 µg/mL (≈ 0.644 µM)
[21]
  Minimum inhibition concentration (MIC): 0.5 µg/mL (≈ 1.29 µM)

## N-[[(5S)-3-[3-fluoro-4-(4-dicyanomethylidenepiperidinyl) phenyl]-2-oxo-5-oxazolidinyl]methyl]acetamide [Compound 6]
[1]
  Minimum inhibition concentration (MIC): 2 µg/mL
[2]
  Minimum inhibition concentration (MIC): 4 µg/mL
[3]
  Minimum inhibition concentration (MIC): 4 µg/mL
[4]
  Minimum inhibition concentration (MIC): 4 µg/mL
[5]
  Minimum inhibition concentration (MIC): 4 µg/mL
[6]
  Minimum inhibition concentration (MIC): 4 µg/mL
[7]
  Minimum inhibition concentration (MIC): 4 µg/mL
[8]
  Minimum inhibition concentration (MIC): 2 µg/mL
[9]
  Minimum inhibition concentration (MIC): 4 µg/mL
[10]
  Minimum inhibition concentration (MIC): 4 µg/mL
[11]
  Minimum inhibition concentration (MIC): 2 µg/mL
[12]
  Minimum inhibition concentration (MIC): 1 µg/mL
[13]
  Minimum inhibition concentration (MIC): 2 µg/mL
[14]
  Minimum inhibition concentration (MIC): 4 µg/mL
[15]
  Minimum inhibition concentration (MIC): 4 µg/mL
[16]
  Minimum inhibition concentration (MIC): 2 µg/mL
[17]
  Minimum inhibition concentration (MIC): 1 µg/mL
[18]
  Minimum inhibition concentration (MIC): 4 µg/mL
[19]
  Minimum inhibition concentration (MIC): 2 µg/mL
[20]
  Minimum inhibition concentration (MIC): 4 µg/mL
[21]
  Minimum inhibition concentration (MIC): 1 µg/mL
